Read-outs that look alike come from different tables or passages of the source.
Key:
[1] = molecular target: T1, rat liver ER GluII (Rattus norvegicus, UniProt A0A8I6GFL3); assay: ER α-glucosidase II inhibition with native-like fluorescently labelled glycan substrate (HPLC); format: biochemical
T1 construct: Rat liver ER, II; from tissue; host or cells: liver of male Wistar rats
Experimental: % Inhibition (C) Glc1→ Glc0
Supplemental Figure 1: In vitro inhibition of GluII by 4. Enzyme activity assays were carried out using rat liver ER GluII with either α-p-nitrophenylglucoside ( α-PNPG, A) or ﬂuorescently labelled glycan ( B and C) as substrate. The curves show the relationship between ToP-DNJ 4 concentration and inhibition of the enzymatic activity. The iminosugar inhibits the enzymatic catalysis of the reactions indepen-dent of substrate, but with diﬀering IC 50 values: 9.0 µm for α-PNPG; 14 µm for Glc2Man7GlcNAc2; 56 µm for Glc1Man7GlcNAc2. […]
(§1) 4 Enzyme Inhibition Assays
All rat enzymes were isolated from 18-week-old, male Wistar rats, while human lysosomal α-glucosidase was obtained in commercially available form from Sanoﬁ Genzyme. Inhibition of isolated glucosidases was evaluated as described previously. 3 Brieﬂy, maltase, isomaltase, sucrase, and cellobiase were used as partially puriﬁed tissue extracts. Inhibition assays for each enzyme were performed with the respective natural substrate, and release of d-glucose measured by Glucose B-test (Wako Diagnostics). Assays of rat ER α-glucosidase II and human lysosomal α-glucosidase inhibition were conducted with α-p-nitrophenylglucoside as substrate; 400 mm Na2CO3 was added to quench these reactions, and the extent of hydrolysis was evaluated as absorbance at 400 nm by spectrophotometer. […]

[2] = molecular target: T2, Rat liver ER α-glucosidase I (Rattus norvegicus, UniProt O88941); assay: Inhibition of isolated rat liver ER α-glucosidase I (anthranilic acid-labelled Glc3Man7GlcNAc2 substrate, HPLC); format: biochemical; conditions: for IC50: isolated enzyme in vitro, mean of three measurements
T2 construct: Rat liver ER, I; from tissue; host or cells: liver of male Wistar rats
T2 sequence (O88941 1-834): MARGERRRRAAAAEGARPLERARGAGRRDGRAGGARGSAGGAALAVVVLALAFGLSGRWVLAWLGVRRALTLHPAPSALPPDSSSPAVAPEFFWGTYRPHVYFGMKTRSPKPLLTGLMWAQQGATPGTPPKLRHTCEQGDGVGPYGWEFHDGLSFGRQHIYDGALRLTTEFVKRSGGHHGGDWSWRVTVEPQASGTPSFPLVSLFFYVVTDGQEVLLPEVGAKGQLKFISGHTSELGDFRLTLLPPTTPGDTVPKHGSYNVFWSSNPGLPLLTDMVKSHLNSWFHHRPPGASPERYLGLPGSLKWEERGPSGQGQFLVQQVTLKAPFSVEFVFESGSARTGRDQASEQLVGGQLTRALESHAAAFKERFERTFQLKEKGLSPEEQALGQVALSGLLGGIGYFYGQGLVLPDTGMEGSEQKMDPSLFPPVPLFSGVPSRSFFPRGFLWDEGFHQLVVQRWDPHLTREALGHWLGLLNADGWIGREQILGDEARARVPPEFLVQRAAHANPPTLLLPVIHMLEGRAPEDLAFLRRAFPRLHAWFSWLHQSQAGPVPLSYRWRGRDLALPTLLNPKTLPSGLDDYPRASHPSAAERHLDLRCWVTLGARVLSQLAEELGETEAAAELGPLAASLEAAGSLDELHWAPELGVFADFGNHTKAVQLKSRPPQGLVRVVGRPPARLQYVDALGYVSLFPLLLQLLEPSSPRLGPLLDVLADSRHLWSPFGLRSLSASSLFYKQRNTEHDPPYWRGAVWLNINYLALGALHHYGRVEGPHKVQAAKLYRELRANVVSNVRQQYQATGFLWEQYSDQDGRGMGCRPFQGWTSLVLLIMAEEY
Experimental: as §1
All rat enzymes were isolated from 18-week-old, male Wistar rats, while human lysosomal α-glucosidase was obtained in commercially available form from Sanoﬁ Genzyme. Inhibition of isolated glucosidases was evaluated as described previously. 3 Brieﬂy, maltase, isomaltase, sucrase, and cellobiase were used as partially puriﬁed tissue extracts. Inhibition assays for each enzyme were performed with the respective natural substrate, and release of d-glucose measured by Glucose B-test (Wako Diagnostics). Assays of rat ER α-glucosidase II and human lysosomal α-glucosidase inhibition were conducted with α-p-nitrophenylglucoside as substrate; 400 mm Na2CO3 was added to quench these reactions, and the extent of hydrolysis was evaluated as absorbance at 400 nm by spectrophotometer.
ER α-glucosidase I inhibition assays were performed using anthranilic acid-labelled Glc3Man7GlcNAc2 as substrate. After terminating the reaction with acetonitrile, protein was removed by cen-trifugation through a 10 kDa molecular weight cut oﬀ ﬁlter. The amount of hydrolysis was then quantiﬁed by normal phase high performance liquid chromatography analysis of unreacted substrate and product (Glc2Man7GlcNAc2).4
ER α-glucosidase II inhibition assays using native-like substrates were performed using an-thranilic acid-labelled Glc2Man7GlcNAc2 as substrate. After terminating the reaction with acetonitrile, protein was removed by centrifugation through a 10 kDa molecular weight cut oﬀ ﬁlter. The amount of hydrolysis was then quantiﬁed by normal phase high performance liq-uid chromatography analysis of unreacted substrate and both products (Glc1Man7GlcNAc2

T1 sequence (A0A8I6GFL3 33-944): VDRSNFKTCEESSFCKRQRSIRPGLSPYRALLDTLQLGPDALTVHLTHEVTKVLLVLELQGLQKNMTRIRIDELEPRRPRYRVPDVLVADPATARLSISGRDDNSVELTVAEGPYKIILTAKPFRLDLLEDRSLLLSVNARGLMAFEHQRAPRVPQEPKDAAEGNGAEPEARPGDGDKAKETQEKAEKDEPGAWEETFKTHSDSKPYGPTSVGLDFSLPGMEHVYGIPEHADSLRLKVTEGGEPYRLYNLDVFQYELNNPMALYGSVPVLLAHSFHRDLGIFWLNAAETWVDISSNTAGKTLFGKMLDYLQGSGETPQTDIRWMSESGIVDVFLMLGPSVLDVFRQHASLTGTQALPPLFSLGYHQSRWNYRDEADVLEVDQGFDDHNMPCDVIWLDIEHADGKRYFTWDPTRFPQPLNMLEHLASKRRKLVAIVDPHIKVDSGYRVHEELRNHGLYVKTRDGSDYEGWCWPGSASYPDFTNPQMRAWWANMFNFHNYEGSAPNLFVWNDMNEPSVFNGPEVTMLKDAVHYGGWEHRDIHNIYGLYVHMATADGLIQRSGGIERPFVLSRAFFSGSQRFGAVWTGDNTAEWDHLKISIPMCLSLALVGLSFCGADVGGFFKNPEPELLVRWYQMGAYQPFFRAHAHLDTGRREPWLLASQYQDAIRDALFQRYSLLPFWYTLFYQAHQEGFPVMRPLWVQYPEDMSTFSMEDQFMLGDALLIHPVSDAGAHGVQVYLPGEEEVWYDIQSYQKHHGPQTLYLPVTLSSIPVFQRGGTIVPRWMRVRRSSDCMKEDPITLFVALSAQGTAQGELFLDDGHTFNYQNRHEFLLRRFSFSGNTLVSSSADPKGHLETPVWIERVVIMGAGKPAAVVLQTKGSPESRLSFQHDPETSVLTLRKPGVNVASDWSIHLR
T1 sequence (A0A8I6ADW9 1-525 partner): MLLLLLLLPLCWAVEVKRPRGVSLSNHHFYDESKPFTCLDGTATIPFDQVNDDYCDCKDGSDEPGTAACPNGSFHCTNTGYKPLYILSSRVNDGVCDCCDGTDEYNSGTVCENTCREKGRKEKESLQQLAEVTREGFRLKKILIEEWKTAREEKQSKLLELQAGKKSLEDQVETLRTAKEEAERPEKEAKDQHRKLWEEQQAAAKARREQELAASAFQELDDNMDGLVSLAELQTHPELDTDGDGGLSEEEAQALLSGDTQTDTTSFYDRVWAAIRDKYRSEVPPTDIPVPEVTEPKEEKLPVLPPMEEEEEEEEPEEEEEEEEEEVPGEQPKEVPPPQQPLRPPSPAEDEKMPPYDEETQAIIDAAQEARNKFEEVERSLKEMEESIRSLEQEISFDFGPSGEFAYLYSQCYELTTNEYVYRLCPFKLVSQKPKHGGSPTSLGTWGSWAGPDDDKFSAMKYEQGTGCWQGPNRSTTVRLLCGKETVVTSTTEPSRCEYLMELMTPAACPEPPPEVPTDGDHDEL

| Compound | IC50 ([1]; first GluII reaction, fluorescently labelled Glc2Man7GlcNAc1 substrate, read-out: IC50 for the conversion of diglucosylated to monoglucosylated glycan by GluII) | IC50 ([1]; second GluII reaction, fluorescently labelled glycan substrate, read-out: IC50 for the conversion of monoglucosylated to nonglucosylated glycan by GluII) | inhibition at 50 µM ([2]; 50 μM, read-out: inhibition of GluI at the maximum tested concentration) | IC50 [2] |
| --- | --- | --- | --- | --- |
| Cc1c(C)c2c(c(C)c1OCCCCCN1CC(O)C(O)C(O)C1CO)CCC(C)(CCCC(C)CCCC(C)CCCC(C)C)O2 (centres unmarked) [Compound 4, 5′-tocopheroxypentyl-DNJ] | 14 µM | 56 µM | < 50% | > 50 µM |
| CCCCN1CC(O)C(O)C(O)C1CO [Compound 2, N-butyl-D-1-deoxynojirimycin, reference compound] | – | – | – | 0.68 µM |
